These results are taken from patent US20240409557A1, “5,6-FUSED AND 6,6-FUSED BICYCLIC ALCOHOLS AND ETHERS AND COMPOSITIONS FOR USE AS 15-PROSTAGLANDIN DEHYDROGENASE MODULATORS” (AMGEN INC., priority 2023, published 2024).

One assay deals with T1, 15-PGDH in A549 cells (Homo sapiens, UniProt P15428).
T1 construct: endogenous in cells; host or cells: A549
T1 sequence (P15428 1-266): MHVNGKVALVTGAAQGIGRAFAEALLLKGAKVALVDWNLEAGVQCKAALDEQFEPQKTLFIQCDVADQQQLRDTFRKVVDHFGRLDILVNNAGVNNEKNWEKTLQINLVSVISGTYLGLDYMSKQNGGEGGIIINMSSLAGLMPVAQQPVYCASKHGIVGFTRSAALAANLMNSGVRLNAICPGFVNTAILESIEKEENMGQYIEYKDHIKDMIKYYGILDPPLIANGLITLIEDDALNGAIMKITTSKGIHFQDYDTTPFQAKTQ
Kind of assay: A549 cellular 15-PGDH assay (PGE2 accumulation, HTRF). The assay is classed as cell-based. The settings on record: interleukin-stimulated, inhibitor 24 hrs, PGE2 by competitive HTRF, read-out: A549 Cell Assay IC50. The essentials: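 IL-13-stimulated A549 lung carcinoma cells released PGE2, which was measured in supernatants by competitive HTRF with a Eu-cryptate anti-PGE2 antibody and labelled PGE2. Signal falls as PGE2 rises. IC50 values were derived from the binding data.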

Assay [1] concerns the target T2, human recombinant 15-PGDH (Homo sapiens, UniProt P15428).
T2 sequence (P15428 1-266): T1 sequence (P15428 1-266)
The experiment in a line: Recombinant 15-PGDH enzymatic inhibition assay (PGDH-Lumi, NADH signal). The assay is classed as biochemical. The note with it: recombinant 15-PGDH; 15 min pre-incubation, 60 min reaction with PGE2 and NAD+, NADH signal. A digest of the protocol:
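Recombinant 15-PGDH pre-incubated 15 min at room temperature with compound (22 concentrations, 2-fold dilutions) in 50 mM Tris pH 7.5, 0.01% Tween-20, […].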

`Cc1c2cnc(-c3cnc4nn(C)cc4c3)nc2sc1[C@]1(O)C[C@@H](C(F)F)C1` [Compound C90C, cis-3-(difluoromethyl)-1-(5-methyl-2-(2-methyl-2H-pyrazolo[3,4-b]pyridin-5-yl)thieno[2,3-d]pyrimidin-6-yl)cyclobutanol]: the IC50 at 15-PGDH in A549 cells came to 33 nM; in assay [1], 14.4 nM.
For the molecule `Cc1cn2ncc(-c3ccc4cc([C@]5(O)C[C@@H](C(F)F)C5)sc4n3)cc2n1` [Compound C92C, cis-3-(difluoromethyl)-1-(6-(2-methylimidazo[1,2-b]pyridazin-7-yl)thieno[2,3-b]pyridin-2-yl)cyclobutanol], the values for the IC50 (at 15-PGDH in A549 cells; in assay [1]) were 5.27 nM and 1.46 nM, respectively.
The like results for `Cc1nc2cc(-c3ccc4cc([C@]5(O)C[C@@H](C(F)F)C5)sc4n3)cnc2[nH]1` [Compound C93C, cis-3-(difluoromethyl)-1-(6-(2-methyl-3H-imidazo[4,5-b]pyridin-6-yl)thieno[2,3-b]pyridin-2-yl)cyclobutanol] were, in that order, 1.96 nM and 0.587 nM.
The like results for `CO[C@H]1C[C@](O)(c2cc3cnc(-c4cnc5nn(C)cc5c4)nc3s2)C1` [Compound C94C, cis-3-methoxy-1-(2-(2-methyl-2H-pyrazolo[3,4-b]pyridin-5-yl)thieno[2,3-d]pyrimidin-6-yl)cyclobutanol] were, in that order, 1.45 nM and 2 nM.
The like results for `Cn1nnc2cc(-c3ncc4cc([C@]5(O)C[C@@H](C(F)(F)F)C5)sc4n3)cnc21` [Compound C95C, cis-1-(2-(3-methyl-3H-[1,2,3]triazolo[4,5-b]pyridin-6-yl)thieno[2,3-d]pyrimidin-6-yl)-3-(trifluoromethyl)cyclobutanol] were, in that order, 9.76 nM and 1.26 nM.
On to `Cc1cn2cc(-c3ccc4cc([C@]5(O)C[C@@H](C(F)F)C5)sc4n3)cnc2n1` [Compound C97C, cis-3-(difluoromethyl)-1-(6-(2-methylimidazo[1,2-a]pyrimidin-6-yl)thieno[2,3-b]pyridin-2-yl)cyclobutanol], for which the IC50 on 15-PGDH in A549 cells was 1.46 nM; in assay [1], 0.333 nM.
The like results for `Cn1cc2cc(-c3ncc4cc([C@]5(O)C[C@@H](C6CC6)C5)sc4n3)cnc2n1` [Compound C99C, cis-3-cyclopropyl-1-(2-(2-methyl-2H-pyrazolo[3,4-b]pyridin-5-yl)thieno[2,3-d]pyrimidin-6-yl)cyclobutanol] were, in that order, 0.666 nM and 0.291 nM.
The like results for `Cn1cc2cc(-c3ncc4cc([C@]5(O)C[C@@H](OC(F)(F)F)C5)sc4n3)cnc2n1` [Compound C100C, cis-1-(2-(2-methyl-2H-pyrazolo[3,4-b]pyridin-5-yl)thieno[2,3-d]pyrimidin-6-yl)-3-(trifluoromethoxy)cyclobutanol] were, in that order, 0.671 nM and 0.3 nM.
The like results for `Cn1nnc2cc(-c3ccc4cc([C@]5(O)C[C@@H](OC(F)(F)F)C5)sc4n3)cnc21` [Compound C101C, cis-1-(6-(3-methyl-3H-[1,2,3]triazolo[4,5-b]pyridin-6-yl)thieno[2,3-b]pyridin-2-yl)-3-(trifluoromethoxy)cyclobutanol] were, in that order, 0.847 nM and 0.496 nM.
As for `O[C@]1(c2cc3ccc(-c4cnc5[nH]nnc5c4)nc3s2)C[C@H](C(F)F)C1` [Compound C103C, cis-3-(difluoromethyl)-1-(6-(3H-[1,2,3]triazolo[4,5-b]pyridin-6-yl)thieno[2,3-b]pyridin-2-yl)cyclobutanol], the values for the IC50 (at 15-PGDH in A549 cells; in assay [1]) were 2.43 nM and 0.302 nM, respectively.
The like results for `Cn1cc2cc(-c3ccc4nc([C@]5(O)C[C@@H](OC(F)(F)F)C5)sc4n3)cnc2n1` [Compound C105C, cis-1-(5-(2-methyl-2H-pyrazolo[3,4-b]pyridin-5-yl)[1,3]thiazolo[5,4-b]pyridin-2-yl)-3-(trifluoromethoxy)cyclobutanol] were, in that order, 0.788 nM and 0.294 nM.
The like results for `Cn1cc2cc(-c3ncc4cc(C5(O)CC6(CC6)C5)sc4n3)cnc2n1` [Compound C107, 5-(2-(2-methyl-2H-pyrazolo[3,4-b]pyridin-5-yl)thieno[2,3-d]pyrimidin-6-yl)spiro[2.3]hexan-5-ol] were, in that order, 0.989 nM and 0.49 nM.
The like results for `Cn1cc2cc(-c3ccc4nc(C5(O)CC6(CC6)C5)sc4n3)cnc2n1` [Compound C108, 5-(5-(2-methyl-2H-pyrazolo[3,4-b]pyridin-5-yl)[1,3]thiazolo[5,4-b]pyridin-2-yl)spiro [2.3]hexan-5-ol] were, in that order, 1.25 nM and 0.671 nM.
In the case of `Cn1cc2cc(-c3ncc4nc([C@]5(O)C[C@@H](C(F)F)C5)sc4n3)cnc2n1` [Compound C109C], the IC50 on 15-PGDH in A549 cells was found to be 8.48 nM; in assay [1], 3.35 nM.
Consider `Cn1nnc2cc(-c3ncc4cc([C@]5(O)C[C@@H](OC(F)(F)F)C5)sc4n3)cnc21` [Compound C111C, cis-1-(2-(3-methyl-3H-[1,2,3]triazolo[4,5-b]pyridin-6-yl)thieno[2,3-d]pyrimidin-6-yl)-3-(trifluoromethoxy)cyclobutanol], for which the IC50 was 3.95 nM on 15-PGDH in A549 cells and 1.09 nM in assay [1].
In the case of `Cn1nnc2cc(-c3ccc4nc([C@]5(O)C[C@H](OC(F)(F)F)C5)sc4n3)cnc21` [Compound C112C, cis-1-(5-(3-methyl-3H-[1,2,3]triazolo[4,5-b]pyridin-6-yl)[1,3]thiazolo[5,4-b]pyridin-2-yl)-3-(trifluoromethoxy)cyclobutanol], the values for the IC50 (at 15-PGDH in A549 cells; in assay [1]) were 3.15 nM and 0.589 nM, respectively.
Regarding `Cn1cc2cc(-c3ncc4cc(C5(O)CC6(CC(F)(F)C6)C5)sc4n3)cnc2n1` [Compound C116, 6,6-difluoro-2-(2-(2-methyl-2H-pyrazolo[3,4-b]pyridin-5-yl)thieno[2,3-d]pyrimidin-6-yl)spiro[3.3]heptan-2-ol], the IC50 at 15-PGDH in A549 cells was determined as 1.95 nM; in assay [1], 0.43 nM.
`Cn1cc2cc(-c3ccc4sc([C@]5(O)C[C@@H](OC(F)(F)F)C5)cc4n3)cnc2n1` [Compound C117C, cis-1-(5-(2-methyl-2H-pyrazolo[3,4-b]pyridin-5-yl)thieno[3,2-b]pyridin-2-yl)-3-(trifluoromethoxy)cyclobutanol]: the IC50 at 15-PGDH in A549 cells came out at 1.46 nM; in assay [1], 0.429 nM.
The like results for `COC[C@H]1C[C@](O)(c2cc3cnc(-c4cnc5nn(C)cc5c4)nc3s2)C1` [Compound C119C, cis-3-(methoxymethyl)-1-(2-(2-methyl-2H-pyrazolo[3,4-b]pyridin-5-yl)thieno[2,3-d]pyrimidin-6-yl)cyclobutanol] were, in that order, 6.66 nM and 2.8 nM.
Regarding `Cn1cc(-c2ncc3cc([C@]4(O)C[C@@H](C(F)(F)F)C4)sc3n2)cn1` [Compound C120C, cis-1-(2-(1-methyl-1H-pyrazol-4-yl)thieno[2,3-d]pyrimidin-6-yl)-3-(trifluoromethyl)cyclobutanol], the IC50 on 15-PGDH in A549 cells was determined as 66.7 nM; in assay [1] it was 101 nM.
The like results for `O[C@]1(c2cc3cnc(-c4cccnc4)nc3s2)C[C@H](C(F)(F)F)C1` [Compound C122C, cis-1-(2-(3-pyridinyl)thieno[2,3-d]pyrimidin-6-yl)-3-(trifluoromethyl)cyclobutanol] were, in that order, 18.3 nM and 6.83 nM.
The like results for `O[C@]1(c2cc3cnc(-c4ccc5nccnc5c4)nc3s2)C[C@H](C(F)(F)F)C1` [Compound C123C, cis-1-(2-(6-quinoxalinyl)thieno[2,3-d]pyrimidin-6-yl)-3-(trifluoromethyl)cyclobutanol] were, in that order, 6.18 nM and 0.967 nM.
For `O[C@]1(c2cc3cnc(-c4cnc5nccn5c4)nc3s2)C[C@H](C(F)(F)F)C1` [Compound C124C, cis-1-(2-(imidazo[1,2-a]pyrimidin-6-yl)thieno[2,3-d]pyrimidin-6-yl)-3-(trifluoromethyl)cyclobutanol], the IC50 at 15-PGDH in A549 cells stood at 15.9 nM; in assay [1] it was 2.01 nM.
The like results for `O[C@]1(c2cc3cnc(-c4ccnnc4)nc3s2)C[C@H](C(F)(F)F)C1` [Compound C126C, cis-1-(2-(4-pyridazinyl)thieno[2,3-d]pyrimidin-6-yl)-3-(trifluoromethyl)cyclobutanol] were, in that order, 29 nM and 11.6 nM.
The like results for `Cn1cc2cc(-c3ccc4ccc(C5(O)CC(C)(C)C5)cc4n3)cnc2n1` [Compound D2, 3,3-dimethyl-1-(2-(2-methyl-2H-pyrazolo[3,4-b]pyridin-5-yl)-7-quinolinyl)cyclobutanol] were, in that order, 268 nM and 537 nM.
The like results for `Cn1cc2cc(-c3ccc4ccc([C@]5(O)C[C@@H](C(F)F)C5)cc4n3)cnc2n1` [Compound D5C, cis-3-(difluoromethyl)-1-(2-(2-methyl-2H-pyrazolo[3,4-b]pyridin-5-yl)-7-quinolinyl)cyclobutanol] were, in that order, 253 nM and 198 nM.
For the molecule `Cn1cc2cc(-c3ccc4cc([C@]5(O)C[C@@H](C(F)F)C5)ccc4n3)cnc2n1` [Compound D6C, cis-3-(difluoromethyl)-1-(2-(2-methyl-2H-pyrazolo[3,4-b]pyridin-5-yl)-6-quinolinyl)cyclobutanol], the IC50 at 15-PGDH in A549 cells was determined as 354 nM; in assay [1], 1030 nM.
